# Data as given in patent US20250161476A1 (REGENERON PHARMACEUTICALS, INC., priority 2020, published 2025).
# Where a SMILES comes first, the peptide text is derived from it. [ ]: non-standard residue; d: D form. The star is where a group is joined. Bip(2'-Et,4'-O(CH2)4NH2) = CCc1cc(OCCCCN)ccc1-c1ccc(C[C@H](N)C(=O)O)cc1; Malonyl(2,2-Me2,histaminyl) = CC(C)(C(=O)NCCc1cnc[nH]1)C(=O)*; Nva(5-(3,5-Me2Ph)) = Cc1cc(C)cc(CCC[C@H](N)C(=O)O)c1; Ala(1H-tetrazol-5-yl) = N[C@@H](Cc1nnn[nH]1)C(=O)O; X5 = C[C@]1(C(=O)*)CCN(CCc2cnc[nH]2)C1=O; αMePhe(2-F) = C[C@](N)(Cc1ccccc1F)C(=O)O; Desaminohistidyl = O=C(CCc1c[nH]cn1)*; X3 = CC(C)(C(=O)*)c1ccn[nH]1; X1 = O=C(CCCCCc1cnc[nH]1)*; X2 = CC(C)(C(N)=O)C(=O)*; X4 = CC(C)(C(=O)O)C(=O)*
# Tests used:
# human GLP1R = human GLP1R (Homo sapiens (Human), UniProt P43220); experiment: cAMP responsive luciferase reporter assay, HEK293/CRE-Luc/hGLP1R cells; assay type: cell-based; conditions: for HEK293/CRE-LUC/hGLP1R S/N: highest RLU / RLU of untreated wells; for HEK293/CRE-LUC/hGLP1R Relative Potency (% P8 EC50) / HEK293/CRE-LUC/hGLP1R Relative Signal:Noise (% P8): relative to P8 of the same experiment
# Chain of human GLP1R (P43220 24-463): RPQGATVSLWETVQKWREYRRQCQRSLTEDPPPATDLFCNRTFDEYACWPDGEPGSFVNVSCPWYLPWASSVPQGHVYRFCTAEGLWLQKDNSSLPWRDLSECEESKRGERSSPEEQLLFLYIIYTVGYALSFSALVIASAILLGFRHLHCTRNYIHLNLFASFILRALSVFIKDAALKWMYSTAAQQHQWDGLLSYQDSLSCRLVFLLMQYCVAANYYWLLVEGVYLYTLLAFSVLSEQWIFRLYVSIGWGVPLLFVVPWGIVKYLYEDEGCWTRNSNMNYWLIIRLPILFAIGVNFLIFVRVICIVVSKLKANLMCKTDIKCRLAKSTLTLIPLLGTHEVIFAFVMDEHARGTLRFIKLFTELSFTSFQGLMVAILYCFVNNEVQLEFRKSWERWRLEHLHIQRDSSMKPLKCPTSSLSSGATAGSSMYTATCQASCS
# Description: (§1) To test the activity of GLP1R agonist payloads, GLP1R agonist linker-payloads (LPs), and anti-GLP1R antibody tethered drug conjugates (ATDCs) of the disclosure, a cell-based cAMP responsive luciferase reporter assay was developed. To generate the assay cell line, the firefly luciferase gene was placed under the control of a cAMP response element (CRE) located upstream of a minimal promoter and transfected into HEK293 cells and referred to herein as HEK293/CRE-Luc cells.
# (§2) Three-fold serial dilutions of free payloads or LPs were prepared in 100% DMSO, transferred to fresh assay media, and added to the cells at a final constant DMSO concentration of 0.2%. The last well in the plate served as a blank control containing only the assay media and 0.2% DMSO (untreated well) and was plotted as a continuation of the 3-fold serial dilution. Four to six hours later, luciferase activity was determined after the addition of One-Glo™ reagent (Promega, Cat #E6130) to each well. Relative light units (RLUs) were measured on an Envision luminometer (PerkinElmer) and EC50 values were determined using a four-parameter logistic equation over a 12-point dose response curve (GraphPad Prism). The signal to noise (S/N) was determined by taking the ratio of the highest RLU on the dose response curve to the RLU in the untreated wells.
# GLP1R agonist linker payloads were conjugated to anti-hGLP1R antibodies via N-terminal heavy or light chain Q tags. Several resulting anti-GLP1R antibody tethered drug conjugates (ATDCs) were tested for activity in the HEK293/CRE-Luc/hGLP1R reporter assay as described above for the free GLP1R payload and linker-payload agonists.
# [1] = Plasma stability of payloads and linker-payloads, human plasma; assay type: in vitro ADME; conditions: for half-life at 2 µM: human, pooled plasma, pH 7.4, payload properties table, species not given, read-out: Plasma stability t½ (converted)
# Description: The plasma stability of payloads and linker payloads of the disclosure were measured. For the assay, pooled frozen plasma (human, mouse or monkey) was thawed in cold water or a 37° C. water bath prior to experiment. Plasma was centrifuged at 4000 rpm for 5 min if any clots were observed, they were subsequently removed. If required, the pH was adjusted to 7.4±0.1. For the preparation of compounds and positive controls, a 1 mM intermediate solution was prepared by diluting 10 μL of their stock solution with 90 μL DMSO; a 1 mM intermediate solution of the positive control (Propantheline) was prepared by diluting 10 μL of its stock solution with 90 μL ultrapure water. […] 98 μL of plasma was spiked with 2 μL of dosing solution (100 μM) to achieve the final concentration of 2 μM in duplicate. Samples were then incubated at 37° C. in a water bath. […] At each time point, 400 μL of stop solution (200 ng/mL tolbutamide plus 200 ng/mL labetalol in 50% ACN/MeOH) was added to precipitate protein and mixed thoroughly. Sample plates were then centrifuged at 4,000 rpm for 10 min. An aliquot of supernatant (50 μL) was transferred from each well and mixed with 100 μL ultra-pure water. The samples were then shaken at 800 rpm for approximately 10 min before submitting for LC-MS/MS analysis.
# HEK293/CRE-Luc cells = experiment: cAMP responsive luciferase reporter assay, HEK293/CRE-Luc cells (no hGLP1R expression); assay type: cell-based, human
# Description: as §1, §2
Compound,HEK293/CRE-LUC/hGLP1R S/N (human GLP1R),HEK293/CRE-LUC/hGLP1R Relative Potency (% P8 EC50) (human GLP1R) [%],HEK293/CRE-LUC/hGLP1R Relative Signal:Noise (% P8) (human GLP1R) [%],Human plasma stability assay T½ ([1]; tested for 1 day (A)) [h],half-life at 2 µM [1] [h],EC50 (HEK293/CRE-Luc cells) [nM],HEK293/CRE-LUC S/N (HEK293/CRE-Luc cells),Human plasma stability assay T½ ([1]; tested for 2 hrs (B)) [h]
"CCc1cc(OCCCCN)ccc1-c1ccc(C[C@H](NC(=O)[C@H](CC(=O)O)NC(=O)[C@H](CO)NC(=O)[C@@H](NC(=O)[C@](C)(Cc2ccccc2F)NC(=O)[C@@H](NC(=O)CNC(=O)[C@H](Cc2nn[nH]n2)NC(=O)C(C)(C)C(=O)O)[C@@H](C)O)[C@@H](C)O)C(=O)N[C@@H](CCCc2cc(C)cc(C)c2)C(N)=O)cc1 [P3] (X4-[Ala(1H-tetrazol-5-yl)]GT[αMePhe(2-F)]TSD[Bip(2'-Et,4'-O(CH2)4NH2)][Nva(5-(3,5-Me2Ph))]-NH2)",46.3,0.3,70.3,>57.81,> 57.8,> 200,1.2,
"CCc1cc(OCCCCN)ccc1-c1ccc(C[C@H](NC(=O)[C@H](CC(=O)O)NC(=O)[C@H](CO)NC(=O)[C@@H](NC(=O)[C@](C)(Cc2ccccc2F)NC(=O)[C@@H](NC(=O)CNC(=O)[C@H](Cc2nn[nH]n2)NC(=O)C(C)(C)C(N)=O)[C@@H](C)O)[C@@H](C)O)C(=O)N[C@@H](CCCc2cc(C)cc(C)c2)C(N)=O)cc1 [P4] (X2-[Ala(1H-tetrazol-5-yl)]GT[αMePhe(2-F)]TSD[Bip(2'-Et,4'-O(CH2)4NH2)][Nva(5-(3,5-Me2Ph))]-NH2)",66.9,6.3,101.8,>57.81,> 57.8,> 200,1.6,
"CCc1cc(OCCCCN)ccc1-c1ccc(C[C@H](NC(=O)[C@H](CC(=O)O)NC(=O)[C@H](CO)NC(=O)[C@@H](NC(=O)[C@](C)(Cc2ccccc2F)NC(=O)[C@@H](NC(=O)CNC(=O)[C@H](Cc2nn[nH]n2)NC(=O)C(C)(C)c2ccn[nH]2)[C@@H](C)O)[C@@H](C)O)C(=O)N[C@@H](CCCc2cc(C)cc(C)c2)C(N)=O)cc1 [P6] (X3-[Ala(1H-tetrazol-5-yl)]GT[αMePhe(2-F)]TSD[Bip(2'-Et,4'-O(CH2)4NH2)][Nva(5-(3,5-Me2Ph))]-NH2)",60.7,0.9,92.3,>57.81,> 57.8,> 200,1.0,
"CCc1cc(OCCCCN)ccc1-c1ccc(C[C@H](NC(=O)[C@H](CC(=O)O)NC(=O)[C@H](CO)NC(=O)[C@@H](NC(=O)[C@](C)(Cc2ccccc2F)NC(=O)[C@@H](NC(=O)CNC(=O)[C@H](Cc2nn[nH]n2)NC(=O)C(C)(C)C(=O)NCCc2cnc[nH]2)[C@@H](C)O)[C@@H](C)O)C(=O)N[C@@H](CCCc2cc(C)cc(C)c2)C(N)=O)cc1 [P9, (8S,14S,17S,20S,23S,26S)-8-((2H-tetrazol-5-yl)methyl)-26-(((S)-1-(((S)-1-amino-5-(3,5-dimethylphenyl)-1-oxopentan-2-yl)amino)-3-(4′-(4-aminobutoxy)-2′-ethyl-[1,1′-biphenyl]-4-yl)-1-oxopropan-2-yl)carbamoyl)-17-(2-fluorobenzyl)-14,20-bis((R)-1-hydroxyethyl)-23-(hydroxymethyl)-1-(1H-imidazol-5-yl)-5,5,17-trimethyl-4,6,9,12,15,18,21,24-octaoxo-3,7,10,13, 16,19,22,25-octaazaoctacosan-28-oic acid] ({Malonyl(2,2-Me2,histaminyl)}-[Ala(1H-tetrazol-5-yl)]GT[αMePhe(2-F)]TSD[Bip(2'-Et,4'-O(CH2)4NH2)][Nva(5-(3,5-Me2Ph))]-NH2)",75.2,133.8,114.3,>57.81,> 57.8,> 200,1.3,
"CCc1cc(OCCCCN)ccc1-c1ccc(C[C@H](NC(=O)[C@H](CC(=O)O)NC(=O)[C@H](CO)NC(=O)[C@@H](NC(=O)[C@](C)(Cc2ccccc2F)NC(=O)[C@@H](NC(=O)CNC(=O)[C@H](Cc2nn[nH]n2)NC(=O)[C@H](C)NC(=O)[C@@H](N)Cc2cnc[nH]2)[C@@H](C)O)[C@@H](C)O)C(=O)N[C@@H](CCCc2cc(C)cc(C)c2)C(N)=O)cc1 [P10] (H-HA[Ala(1H-tetrazol-5-yl)]GT[αMePhe(2-F)]TSD[Bip(2'-Et,4'-O(CH2)4NH2)][Nva(5-(3,5-Me2Ph))]-NH2)",45.1,38.0,68.6,,1.8,> 200,1.2,1.83
"CCc1cc(OCCCCN)ccc1-c1ccc(C[C@H](NC(=O)[C@H](CC(=O)O)NC(=O)[C@H](CO)NC(=O)[C@@H](NC(=O)[C@](C)(Cc2ccccc2F)NC(=O)[C@@H](NC(=O)CNC(=O)[C@H](Cc2nn[nH]n2)NC(=O)CCCCCc2cnc[nH]2)[C@@H](C)O)[C@@H](C)O)C(=O)N[C@@H](CCCc2cc(C)cc(C)c2)C(N)=O)cc1 [P11] (X1-[Ala(1H-tetrazol-5-yl)]GT[αMePhe(2-F)]TSD[Bip(2'-Et,4'-O(CH2)4NH2)][Nva(5-(3,5-Me2Ph))]-NH2)",54.8,0.8,83.4,>57.81,> 57.8,> 200,1.1,
"CCc1cc(OCCCCN)ccc1-c1ccc(C[C@H](NC(=O)[C@H](CC(=O)O)NC(=O)[C@H](CO)NC(=O)[C@@H](NC(=O)[C@](C)(Cc2ccccc2F)NC(=O)[C@@H](NC(=O)CNC(=O)[C@H](Cc2nn[nH]n2)NC(=O)CNC(=O)CCc2c[nH]cn2)[C@@H](C)O)[C@@H](C)O)C(=O)N[C@@H](CCCc2cc(C)cc(C)c2)C(N)=O)cc1 [P12] (Desaminohistidyl-G[Ala(1H-tetrazol-5-yl)]GT[αMePhe(2-F)]TSD[Bip(2'-Et,4'-O(CH2)4NH2)][Nva(5-(3,5-Me2Ph))]-NH2)",76.4,46.5,116.2,>57.81,> 57.8,> 200,1.2,
"CCc1cc(OCCCCN)ccc1-c1ccc(C[C@H](NC(=O)[C@H](CC(=O)O)NC(=O)[C@H](CO)NC(=O)[C@@H](NC(=O)[C@](C)(Cc2ccccc2F)NC(=O)[C@@H](NC(=O)CNC(=O)[C@H](Cc2nn[nH]n2)NC(=O)[C@H](C)NC(=O)[C@H](Cc2c[nH]cn2)NC(=O)[C@@H](N)CCC(N)=O)[C@@H](C)O)[C@@H](C)O)C(=O)N[C@@H](CCCc2cc(C)cc(C)c2)C(N)=O)cc1 [P13] (H-QHA[Ala(1H-tetrazol-5-yl)]GT[αMePhe(2-F)]TSD[Bip(2'-Et,4'-O(CH2)4NH2)][Nva(5-(3,5-Me2Ph))]-NH2)",69.5,1.5,105.6,16.9,16.9,> 200,1.2,
"CCc1cc(OCCCCN)ccc1-c1ccc(C[C@H](NC(=O)[C@H](CC(=O)O)NC(=O)[C@H](CO)NC(=O)[C@@H](NC(=O)[C@](C)(Cc2ccccc2F)NC(=O)[C@@H](NC(=O)CNC(=O)[C@H](Cc2nn[nH]n2)NC(=O)[C@@]2(C)CCN(CCc3cnc[nH]3)C2=O)[C@@H](C)O)[C@@H](C)O)C(=O)N[C@@H](CCCc2cc(C)cc(C)c2)C(N)=O)cc1 [P15-R] (X5-[Ala(1H-tetrazol-5-yl)]GT[αMePhe(2-F)]TSD[Bip(2'-Et,4'-O(CH2)4NH2)][Nva(5-(3,5-Me2Ph))]-NH2)",67.8,40.3,103.1,,,> 200,1.1,
